# Measurements taken from patent publication US9926354B2, “Amyloid precursor protein (APP) based Ã#-secretase inhibitor peptides, and methods of use” (UNIVERSITY OF SOUTH FLORIDA, priority 2014, dated 2018).
# No end group written: not given here.
# Legend:
# BACE1 [1] = target: T1, BACE1 (Homo sapiens, UniProt P56817); set-up: purchased Pan Vera Co., Madison, Wis., USA; details: phase II clinical trial suspended June 2013; cited from earlier work
# γ-secretase = details: Phase 3; cited from earlier work
# [2] = type: in vivo, mouse; details: biotin-labeled, 100 nM/kg i.p. daily for 5 days, 4 hours after last injection, 5XFAD mice
# Method: In order to determine the BBB permeability of TAT-APPsweBBP, biotin-labeled TAT-APPsweBBP or APPsweBBP (100 nM/kg in 100 μl physiological saline) was intraperitoneally (i.p.) administered daily to 5XFAD mice at 2 months of age for 5 days (n=5, female). The mice were euthanized 4 hours after the last injection and then brain tissues were removed, sectioned and stained with anti-BACE1 and anti-biotin antibodies. Alexa Fluor® 594 donkey anti-rabbit IgG was used to detect the biotin signal and Alexa Fluor® 488 goat anti-mouse IgG was used to detect the BACE1 signal. All images were taken with an Olympus Fluoview FV1000 laser scanning confocal microscope. […] No noticeable differences in biotin distribution were observed between 5XFAD and WT control mice following either biotin-labeled TAT-APPsweBBP or APPsweBBP injection (data not shown).
# The hypothesis that TAT-APPsweBBP would more effectively penetrate the BBB compared with APPsweBBP alone was initially tested. 5XFAD mice at 2 months of age (n=5, female) were treated with biotin-labeled TAT-APPsweBBP or APPsweBBP (100 nM/kg, i.p.) daily for 5 days and then euthanized 4 hours after the last injection. Brain tissues were removed, sectioned, and stained with anti-BACE1 and anti-biotin antibodies. […] This highlights the importance of the membrane fusion fragment of the HIV-1 Tat protein (TAT) for cerebral delivery of APPsweBBP.
# 5XFAD mice = assay: WB of BACE1, ADAM10, ADAM17, Akt, phospho-Akt and MBP in brain homogenates of 5XFAD mice; type: in vivo, mouse; details: vs TAT and PBS
# Method: 5XFAD Mice—Transgenic AD mice [5XFAD; B6SJL-Tg(APPSwF1Lon,PSEN1*M146L*L286V) 6799Vas/Mmjax] at 2.5 months of age were obtained from the Jackson Laboratory (Bar Harbor, Me., USA) and housed and maintained in the Animal Facility of College of Medicine at University of South Florida. The mice at 3.5 months of age were treated with TAT-APPsweBBP, TAT peptide (100 nM/kg in 100 μl PBS) or PBS (100 μl) intraperitioneally (i.p.) daily for eight consecutive weeks. The mice were subjected to behavioral testing after 8 week-treatment and euthanized for immunohistochemical, ELISA and WB analysis after completing behavioral tests. All experiments involving mice were in compliance with the U.S. Department of Health and Human Services Guide for the Care and Use of Laboratory Animals and in accordance with the guidelines of the USF Institutional Animal Care and Use Committee.
# Western Blotting (WB) and Analysis—WB analysis was performed as previously described (Modi et al., 2013; Tung et al., 2002). Briefly, the proteins from the various cell-free, cell and brain lysates or homogenates were electrophoretically separated using 10% bicine/tris gel (8 M urea) for proteins less than 5 kD or 10% tricine/tris gels for larger proteins. […]
# In addition to cognitive testing, neuronal APP proteolysis was also evaluated by ELISA and WB. […]
# BACE1 [3] = target: T1, BACE1; assay: BACE1 activity assay (FRET, cell-free); type: biochemical; set-up: purchased Pan Vera Co., Madison, Wis., USA
# Method: BACE1 Activity Assay—The BACE1 inhibiting activity of APP-based BACE1 site binding peptides were determined using a fluorescence resonance energy transfer (FRET) assay (Pan Vera Co., Madison, Wis., USA), which employs a recombinant baculovirus-expressed BACE1 and a specific substrate (Rh-[…]-quencher) that is based on the APPswe mutation. This specific peptide substrate becomes highly fluorescent upon enzymatic cleavage. A mixture of 10 μL of BACE1 (1.0 U/mL in 50 mM Tris, pH7.5, 10% glycerol), 10 μL of FRET-substrate, and 10 μL of the various APP-based BACE1 site binding peptides (final concentration 20 μM) were incubated for 90 minutes in the dark at room temperature. Then, 10 μL of BACE1 stop buffer (2.5 M sodium acetate) was added to the mixture. Fluorescence was read using a fluorometer, with excitation at 545 nm and emission at 585 nm.
# As a required enzyme for the generation of neurotoxic Aβ from APP, BACE1 is well established as an important mediator of AD β-amyloid pathology. As such, it has become an important target for new disease modifying therapeutics. However, since BACE1 also has important physiological roles, abolishment of the enzyme or its activity may lead to deleterious side effects as evidenced by numerous failed clinical trials discussed previously. […] Since previous studies have established a close relationship between α-helix structure and peptide-protein (or protein-protein) interactions (Azzarito, 2013; Rao et al., 2013), several APP based peptides were synthesized that might serve as a preferable substrate for BACE1. Importantly, these peptides were free of the Aβ-containing segment and, thus, cannot be amyloidogenic. In theory, these could be used to “hijack” the BACE1 processing of endogenous APP and lead to a decrease in cerebral Aβ. These BACE1 substrates and controls were incubated with recombinant BACE1 and percent of inhibition of the enzyme was calculated. […] These findings indicate that the α-helical TAT fusion domain may help to promote selective APPsweBBP proteolysis by BACE1, yielding substrate competition against human wild-type APP.
# T1 sequence (P56817 46-501): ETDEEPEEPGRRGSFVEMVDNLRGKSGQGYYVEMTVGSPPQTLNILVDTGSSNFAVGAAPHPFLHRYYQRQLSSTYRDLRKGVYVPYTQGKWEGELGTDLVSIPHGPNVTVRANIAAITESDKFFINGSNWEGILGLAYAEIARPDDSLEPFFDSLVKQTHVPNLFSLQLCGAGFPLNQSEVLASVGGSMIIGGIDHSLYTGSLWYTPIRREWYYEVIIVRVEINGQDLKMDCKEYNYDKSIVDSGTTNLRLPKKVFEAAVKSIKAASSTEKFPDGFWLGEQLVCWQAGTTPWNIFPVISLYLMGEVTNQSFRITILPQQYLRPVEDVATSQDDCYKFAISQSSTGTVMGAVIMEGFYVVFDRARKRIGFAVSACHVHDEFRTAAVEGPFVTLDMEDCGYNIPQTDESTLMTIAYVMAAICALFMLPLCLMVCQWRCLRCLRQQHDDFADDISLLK
compound,measurement,setting,value
NC1=N[C@@]2(c3cc(NC(=O)c4ccc(F)cn4)ccc3F)COC[C@H]2CS1 [LY2886721],reason for trial suspension,BACE1 [1],possible liver toxicity
CC(C)[C@H](O)C(=O)N[C@@H](C)C(=O)N[C@@H]1C(=O)N(C)CCc2ccccc21 [semagacestat],activities of daily living and cognition in treated patients,γ-secretase,worsened
YGRKKRRQRRREISEVNLDAEFR [APPsweBBP/TTD2],BBB penetration,[2],highly penetrated the BBB
same,"total Akt, phosphorylated Akt and MBP expression levels in brain homogenates",5XFAD mice,did not differ
same,% of inhibition (mean ± SD) of BACE1,"BACE1 [3]; peptide final concentration 20 μM, 90 minutes, room temperature, listed as TAT-APPswe^bBBP, 20 µM",93.23 ± 2.73%
same,inhibition at 20 µM,"BACE1 [3]; read-out: % of inhibition (mean ± SD) of BACE1, peptide final concentration 20 μM, 90 minutes, room temperature",> 90%
